Results: ChEMBL document CHEMBL5113525, “Discovery of the Novel 1H-Pyrrolo[2,3-b]pyridine Derivative as a Potent Type II CDK8 Inhibitor against Colorectal Cancer” (J Med Chem, 2022)

Tests used:
[1] = target: Glycogen synthase kinase-3 alpha (Homo sapiens) (UniProt P49840); experiment: Inhibition of human GSK3A at 1 uM relative to control
[2] = target: Citron Rho-interacting kinase (Homo sapiens) (UniProt O14578); experiment: Inhibition of human CRIK at 1 uM relative to control
[3] = target: Cyclin-dependent kinase 5/CDK5 activator 1 (Homo sapiens) (UniProt Q00535+Q15078); experiment: Inhibition of human CDK5/p35 at 1 uM relative to control; type: protein-complex assay
Chain of Cyclin-dependent kinase 5/CDK5 activator 1 (Homo sapiens) (Q00535 whole entry): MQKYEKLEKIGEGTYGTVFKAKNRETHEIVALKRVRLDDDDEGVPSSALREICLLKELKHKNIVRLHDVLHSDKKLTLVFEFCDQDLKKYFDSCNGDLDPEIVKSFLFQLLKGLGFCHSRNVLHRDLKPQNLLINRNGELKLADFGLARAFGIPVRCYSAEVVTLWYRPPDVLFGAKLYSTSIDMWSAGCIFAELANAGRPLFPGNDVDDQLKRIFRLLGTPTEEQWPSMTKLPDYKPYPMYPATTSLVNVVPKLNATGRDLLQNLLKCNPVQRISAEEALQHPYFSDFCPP
Chain of Cyclin-dependent kinase 5/CDK5 activator 1 (Homo sapiens) (Q15078 99-307 partner limits assumed): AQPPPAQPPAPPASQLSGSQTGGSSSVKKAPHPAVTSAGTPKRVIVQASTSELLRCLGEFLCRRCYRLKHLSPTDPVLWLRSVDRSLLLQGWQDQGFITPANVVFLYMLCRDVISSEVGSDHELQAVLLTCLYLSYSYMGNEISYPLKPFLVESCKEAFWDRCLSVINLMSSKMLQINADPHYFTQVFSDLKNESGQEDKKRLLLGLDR

[4] = target: Mitogen-activated protein kinase kinase kinase 10 (Homo sapiens) (UniProt Q02779); experiment: Inhibition of human MLK2 at 1 uM relative to control
[5] = target: Aurora kinase B (Homo sapiens) (UniProt Q96GD4); experiment: Inhibition of human Aurora B at 1 uM relative to control
[6] = target: Dual specificity protein kinase CLK1 (Homo sapiens) (UniProt P49759); experiment: Inhibition of human CLK1 at 1 uM relative to control
[7] = target: Receptor-type tyrosine-protein kinase FLT3 (Homo sapiens) (UniProt P36888); experiment: Inhibition of human FLT3 at 1 uM relative to control
Chain of Receptor-type tyrosine-protein kinase FLT3 (Homo sapiens) (P36888 whole entry): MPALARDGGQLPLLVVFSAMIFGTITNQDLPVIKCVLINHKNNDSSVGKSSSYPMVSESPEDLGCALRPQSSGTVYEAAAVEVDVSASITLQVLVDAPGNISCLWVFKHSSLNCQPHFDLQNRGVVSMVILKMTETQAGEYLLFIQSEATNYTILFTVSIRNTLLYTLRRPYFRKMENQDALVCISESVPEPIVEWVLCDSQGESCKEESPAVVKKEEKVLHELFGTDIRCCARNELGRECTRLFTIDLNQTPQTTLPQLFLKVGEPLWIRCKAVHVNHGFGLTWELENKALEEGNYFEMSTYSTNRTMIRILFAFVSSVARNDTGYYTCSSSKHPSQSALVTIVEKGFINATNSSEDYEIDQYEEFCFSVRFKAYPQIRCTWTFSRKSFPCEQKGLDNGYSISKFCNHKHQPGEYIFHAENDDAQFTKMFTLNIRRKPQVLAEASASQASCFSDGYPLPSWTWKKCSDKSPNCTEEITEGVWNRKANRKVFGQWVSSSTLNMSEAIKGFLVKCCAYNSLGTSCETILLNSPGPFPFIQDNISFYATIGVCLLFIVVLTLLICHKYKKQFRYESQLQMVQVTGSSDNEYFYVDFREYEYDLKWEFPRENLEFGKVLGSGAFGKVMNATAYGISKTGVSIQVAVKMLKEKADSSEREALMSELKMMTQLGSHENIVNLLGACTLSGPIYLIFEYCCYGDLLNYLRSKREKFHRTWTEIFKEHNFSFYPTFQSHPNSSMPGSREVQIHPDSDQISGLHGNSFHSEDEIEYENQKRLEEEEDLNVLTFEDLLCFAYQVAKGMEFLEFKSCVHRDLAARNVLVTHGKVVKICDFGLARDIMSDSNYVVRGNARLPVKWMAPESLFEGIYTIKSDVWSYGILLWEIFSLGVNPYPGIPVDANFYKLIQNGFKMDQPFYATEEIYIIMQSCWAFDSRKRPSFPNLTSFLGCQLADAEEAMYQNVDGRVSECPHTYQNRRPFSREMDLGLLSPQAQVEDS

[8] = target: Vascular endothelial growth factor receptor 1 (Homo sapiens) (UniProt P17948); experiment: Inhibition of human FLT1 at 1 uM relative to control
[9] = target: Mitogen-activated protein kinase kinase kinase 9 (Homo sapiens) (UniProt P80192); experiment: Inhibition of human MLK1 at 1 uM relative to control
[10] = target: Dual specificity protein kinase CLK3 (Homo sapiens) (UniProt P49761); experiment: Inhibition of human CLK3 at 1 uM relative to control
Chain of Dual specificity protein kinase CLK3 (Homo sapiens) (P49761 whole entry, looked up): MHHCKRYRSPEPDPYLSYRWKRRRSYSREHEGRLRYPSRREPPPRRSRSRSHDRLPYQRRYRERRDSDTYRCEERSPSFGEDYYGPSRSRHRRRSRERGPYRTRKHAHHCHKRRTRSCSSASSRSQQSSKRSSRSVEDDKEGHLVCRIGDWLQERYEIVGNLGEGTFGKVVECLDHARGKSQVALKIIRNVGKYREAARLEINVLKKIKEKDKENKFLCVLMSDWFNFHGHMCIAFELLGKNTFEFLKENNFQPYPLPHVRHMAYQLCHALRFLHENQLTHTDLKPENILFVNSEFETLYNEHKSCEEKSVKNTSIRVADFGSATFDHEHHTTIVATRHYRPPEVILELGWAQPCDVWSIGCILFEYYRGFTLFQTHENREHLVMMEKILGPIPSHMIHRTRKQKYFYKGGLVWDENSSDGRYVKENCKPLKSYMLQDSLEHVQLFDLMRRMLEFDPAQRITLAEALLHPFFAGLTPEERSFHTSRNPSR

[11] = target: Serine/threonine-protein kinase mTOR (Homo sapiens) (UniProt P42345); experiment: Inhibition of human MTOR at 1 uM relative to control
[12] = target: Tyrosine-protein kinase JAK2 (Homo sapiens) (UniProt O60674); experiment: Inhibition of human JAK2 at 1 uM relative to control
[13] = target: Fibroblast growth factor receptor 3 (Homo sapiens) (UniProt P22607); experiment: Inhibition of human FGFR3 at 1 uM relative to control
[14] = target: Discoidin domain-containing receptor 2 (Homo sapiens) (UniProt Q16832); experiment: Inhibition of human DDR2 at 1 uM relative to control
[15] = Half life in Sprague-Dawley rat at 5 mg/kg, iv measured upto 12 hrs by LC-MS/MS analysis; type: ADME, organism-based; conditions: in vivo
[16] = target: Mitogen-activated protein kinase kinase kinase 11 (Homo sapiens) (UniProt Q16584); experiment: Inhibition of human MLK3 at 1 uM relative to control
[17] = target: Serine/threonine-protein kinase pim-3 (Homo sapiens) (UniProt Q86V86); experiment: Inhibition of human PIM3 at 1 uM relative to control
[18] = target: Epithelial discoidin domain-containing receptor 1 (Homo sapiens) (UniProt Q08345); experiment: Inhibition of human DDR1 at 1 uM relative to control

Chain of Glycogen synthase kinase-3 alpha (Homo sapiens) (P49840 2-483 limits assumed): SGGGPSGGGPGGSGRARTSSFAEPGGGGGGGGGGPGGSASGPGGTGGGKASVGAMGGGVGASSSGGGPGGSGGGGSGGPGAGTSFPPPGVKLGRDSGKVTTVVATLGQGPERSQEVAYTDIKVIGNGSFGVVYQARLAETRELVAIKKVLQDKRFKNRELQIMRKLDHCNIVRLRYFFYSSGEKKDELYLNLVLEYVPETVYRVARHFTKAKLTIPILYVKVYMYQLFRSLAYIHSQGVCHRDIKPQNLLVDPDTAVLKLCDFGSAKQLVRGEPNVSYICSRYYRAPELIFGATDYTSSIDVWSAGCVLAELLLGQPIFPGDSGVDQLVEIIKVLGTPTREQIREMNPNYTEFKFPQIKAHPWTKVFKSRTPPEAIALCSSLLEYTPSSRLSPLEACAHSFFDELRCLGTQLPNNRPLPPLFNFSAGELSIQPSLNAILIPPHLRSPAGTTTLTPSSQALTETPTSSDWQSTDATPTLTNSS
Chain of Citron Rho-interacting kinase (Homo sapiens) (O14578 whole entry): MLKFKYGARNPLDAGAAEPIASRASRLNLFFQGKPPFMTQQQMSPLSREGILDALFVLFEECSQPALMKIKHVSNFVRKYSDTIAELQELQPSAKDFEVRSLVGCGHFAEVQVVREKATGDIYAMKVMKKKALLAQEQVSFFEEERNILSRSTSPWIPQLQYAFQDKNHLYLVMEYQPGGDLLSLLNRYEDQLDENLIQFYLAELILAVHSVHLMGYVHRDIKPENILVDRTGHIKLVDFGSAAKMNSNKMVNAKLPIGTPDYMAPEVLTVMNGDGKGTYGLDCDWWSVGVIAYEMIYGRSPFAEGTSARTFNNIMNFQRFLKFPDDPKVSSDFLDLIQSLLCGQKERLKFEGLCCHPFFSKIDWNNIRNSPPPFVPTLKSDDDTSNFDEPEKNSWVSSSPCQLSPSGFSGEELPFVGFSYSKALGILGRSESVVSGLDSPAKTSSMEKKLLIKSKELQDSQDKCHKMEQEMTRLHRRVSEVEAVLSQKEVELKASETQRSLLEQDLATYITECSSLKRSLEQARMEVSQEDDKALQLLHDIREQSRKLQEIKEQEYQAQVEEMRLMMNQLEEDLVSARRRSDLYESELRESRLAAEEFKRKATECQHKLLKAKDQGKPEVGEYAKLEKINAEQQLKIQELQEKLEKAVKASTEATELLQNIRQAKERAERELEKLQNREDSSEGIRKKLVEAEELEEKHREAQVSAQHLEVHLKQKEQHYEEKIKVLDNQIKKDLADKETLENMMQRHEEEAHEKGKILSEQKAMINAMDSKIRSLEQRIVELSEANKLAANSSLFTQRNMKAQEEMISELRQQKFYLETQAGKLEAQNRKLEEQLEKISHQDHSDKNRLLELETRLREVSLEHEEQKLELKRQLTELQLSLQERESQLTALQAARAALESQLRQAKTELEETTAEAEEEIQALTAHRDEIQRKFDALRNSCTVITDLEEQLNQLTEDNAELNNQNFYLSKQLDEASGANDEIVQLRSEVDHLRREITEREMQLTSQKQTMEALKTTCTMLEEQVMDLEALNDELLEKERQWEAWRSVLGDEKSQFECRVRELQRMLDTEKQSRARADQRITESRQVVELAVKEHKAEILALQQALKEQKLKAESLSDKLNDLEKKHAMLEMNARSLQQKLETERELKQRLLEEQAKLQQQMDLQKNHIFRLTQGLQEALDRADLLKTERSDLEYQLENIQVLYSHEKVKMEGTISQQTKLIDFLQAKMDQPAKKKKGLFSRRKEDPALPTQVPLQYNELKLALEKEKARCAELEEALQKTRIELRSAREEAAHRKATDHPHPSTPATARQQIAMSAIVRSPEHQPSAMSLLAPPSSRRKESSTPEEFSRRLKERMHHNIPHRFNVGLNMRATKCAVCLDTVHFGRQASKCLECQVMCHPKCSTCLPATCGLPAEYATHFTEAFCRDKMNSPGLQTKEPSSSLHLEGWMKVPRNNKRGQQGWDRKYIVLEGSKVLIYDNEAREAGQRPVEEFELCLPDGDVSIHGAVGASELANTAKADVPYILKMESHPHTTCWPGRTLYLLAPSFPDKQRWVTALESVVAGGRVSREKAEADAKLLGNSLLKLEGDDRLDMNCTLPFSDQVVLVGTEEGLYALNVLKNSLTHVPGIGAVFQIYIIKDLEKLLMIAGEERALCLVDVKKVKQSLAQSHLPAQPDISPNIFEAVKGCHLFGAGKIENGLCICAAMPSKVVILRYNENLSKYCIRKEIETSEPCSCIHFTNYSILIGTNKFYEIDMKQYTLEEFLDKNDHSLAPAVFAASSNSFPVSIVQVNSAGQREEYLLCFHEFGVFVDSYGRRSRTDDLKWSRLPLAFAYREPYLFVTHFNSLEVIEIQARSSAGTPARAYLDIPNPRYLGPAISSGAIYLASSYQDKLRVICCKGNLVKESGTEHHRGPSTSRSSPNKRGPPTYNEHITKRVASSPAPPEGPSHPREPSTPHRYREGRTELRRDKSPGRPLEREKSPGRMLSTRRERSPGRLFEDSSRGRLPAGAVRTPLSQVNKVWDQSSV

Cc1ccc(NC(=O)CCc2cccc(-c3cnc4[nH]ccc4c3)c2)cc1C(F)(F)F
inhibition [1]: 6%
inhibition [2]: 1%
inhibition [3]: 0%
inhibition [4]: 5%
inhibition [5]: 43%
inhibition [6]: 10%
inhibition [7]: 48%
inhibition [8]: 1%
inhibition [9]: 7%
inhibition [10]: 2%
inhibition [11]: 5%
inhibition [12]: 10%
inhibition [13]: 0%
inhibition [14]: 23%
half-life [15]: 1.63 h
inhibition [16]: 0%
inhibition [17]: 4%
inhibition [18]: 36%
